Results: the supplement of paper PMC13380429

How the values were obtained:
Conditions in all cases: 72 h
Caco-2 [1] = experiment: cell viability relative to DMSO; higher = less toxic
Calu-3 [2] = experiment: as above
HepG2 [3] = experiment: as above
U2OS [4] = experiment: as above
Vero E6 [5] = experiment: as above
Caco-2 [6] = experiment: relative viability EC50 (midpoint between 100% and the lowest measured viability); higher = less toxic
Calu-3 [7] = experiment: as above
HepG2 [8] = experiment: as above
U2OS [9] = experiment: as above
Vero E6 [10] = experiment: as above
Caco-2 [11] = experiment: drug sensitivity score (DSS) for viability; higher = more toxic; extreme values may be limits of the assay
Calu-3 [12] = experiment: as above
HepG2 [13] = experiment: as above
U2OS [14] = experiment: as above
Vero E6 [15] = experiment: as above

SMILES | cell viability (Caco-2 [1]; 1 nM) [%] | cell viability (Caco-2 [1]; 10 nM) [%] | cell viability (Caco-2 [1]; 100 nM) [%] | cell viability (Caco-2 [1]; 1000 nM) [%] | cell viability (Caco-2 [1]; 10000 nM) [%] | cell viability (Calu-3 [2]; 1 nM) [%] | cell viability (Calu-3 [2]; 10 nM) [%] | cell viability (Calu-3 [2]; 100 nM) [%] | cell viability (Calu-3 [2]; 1000 nM) [%] | cell viability (Calu-3 [2]; 10000 nM) [%] | cell viability (HepG2 [3]; 1 nM) [%] | cell viability (HepG2 [3]; 10 nM) [%] | cell viability (HepG2 [3]; 100 nM) [%] | cell viability (HepG2 [3]; 1000 nM) [%] | cell viability (HepG2 [3]; 10000 nM) [%] | cell viability (U2OS [4]; 1 nM) [%] | cell viability (U2OS [4]; 10 nM) [%] | cell viability (U2OS [4]; 100 nM) [%] | cell viability (U2OS [4]; 1000 nM) [%] | cell viability (U2OS [4]; 10000 nM) [%] | cell viability (Vero E6 [5]; 1 nM) [%] | cell viability (Vero E6 [5]; 10 nM) [%] | cell viability (Vero E6 [5]; 100 nM) [%] | cell viability (Vero E6 [5]; 1000 nM) [%] | cell viability (Vero E6 [5]; 10000 nM) [%] | relative viability EC50 (Caco-2 [6]) [µM] | relative viability EC50 (Calu-3 [7]) [µM] | relative viability EC50 (HepG2 [8]) [µM] | relative viability EC50 (U2OS [9]) [µM] | relative viability EC50 (Vero E6 [10]) [µM] | drug sensitivity score (Caco-2 [11]) | drug sensitivity score (Calu-3 [12]) | drug sensitivity score (HepG2 [13]) | drug sensitivity score (U2OS [14]) | drug sensitivity score (Vero E6 [15])
N#C/C(=C1/SC[C@@H](c2ccc(Cl)cc2Cl)S1)n1ccnc1 [luliconazole] | 102 | 98.1 | 96.7 | 90.6 | 89.7 | 95.8 | 109 | 96.8 | 95.7 | 89.6 | 104 | 105 | 97.5 | 105 | 96 | 100 | 100 | 98.9 | 96.7 | 96.9 | 101 | 99 | 93.8 | 102 | 94.5 | > 10 | > 10 | > 10 | > 10 | > 10 | 0 | 0 | 0 | 0 | 0
COc1ccc(-c2coc3cc(O)cc(O)c3c2=O)cc1 [4-methylgenistein] | 98.7 | 98.1 | 105 | 104 | 96 | 113 | 99 | 101 | 106 | 91 | 106 | 109 | 102 | 92.6 | 95.2 | 99.3 | 94.1 | 99.3 | 98.8 | 97.1 | 94 | 95 | 101 | 88.5 | 102 | > 10 | > 10 | > 10 | > 10 | > 10 | 0 | 0 | 0 | 0 | 0
C=C[C@@H]1C[C@]1(NC(=O)[C@@H]1C[C@@H](Oc2ncc(OC)c3ccc(Cl)cc23)CN1C(=O)[C@@H](NC(=O)OC(C)(C)C)C(C)(C)C)C(=O)NS(=O)(=O)C1CC1 [asunaprevir] | 98.7 | 96.5 | 90 | 104 | 85.8 | 104 | 101 | 104 | 101 | 95.9 | 104 | 97.8 | 98.8 | 89.8 | 86.1 | 98.4 | 101 | 96.7 | 96.8 | 97.8 | 102 | 98.4 | 93.5 | 101 | 91 | > 10 | > 10 | > 10 | > 10 | > 10 | 0.1 | 0 | 0.6 | 0 | 0
Cc1ccc(Nc2ncc3c(n2)N(C)C(=O)N(c2cc(NC(=O)c4cccc(C(F)(F)F)c4)ccc2C)C3)cn1 [GNF-7] | 93.8 | 92.1 | 89.3 | 19.3 | 18.7 | 112 | 103 | 87.5 | 20.8 | 23.7 | 92.5 | 101 | 97.7 | 16.8 | 0.3 | 105 | 97.5 | 78.8 | 13.9 | 32.9 | 95.2 | 103 | 91 | 12 | 11.3 | 0.21 | 0.195 | 0.501 | 0.156 | 0.235 | 16.6 | 16.6 | 15.4 | 19 | 17.5
CN(C)[C@@H]1CCc2[nH]c3ccc(NC(=O)c4ccc(F)cc4)cc3c2C1 | 96 | 103 | 93.5 | 99.3 | 86.6 | 105 | 93.2 | 105 | 110 | 84.2 | 101 | 99.3 | 95.8 | 89.3 | 94.6 | 97.1 | 104 | 91.9 | 101 | 96.1 | 106 | 98.9 | 100 | 96.1 | 97.2 | > 10 | > 10 | > 10 | > 10 | > 10 | 0.2 | 0.1 | 0.1 | 0 | 0
C=C[C@@](C)(/C=C/c1ccc(O)cc1)CCC=C(C)C [bakuchiol] | 105 | 87.4 | 109 | 96.8 | 97.6 | 94.8 | 94.9 | 95.7 | 96.1 | 98.2 | 107 | 115 | 87.9 | 93 | 81.5 | 96.1 | 101 | 98 | 92.8 | 97.6 | 103 | 110 | 98.7 | 97.6 | 98.5 | > 10 | > 10 | > 10 | > 10 | > 10 | 0 | 0 | 0.9 | 0 | 0
CC(C)C[C@@H](NC(=O)[C@H](C)NC(=O)CNC(=O)[C@@H](NC=O)C(C)C)C(=O)N[C@@H](C)C(=O)N[C@@H](C(=O)N[C@H](C(=O)N[C@@H](C(=O)N[C@@H](Cc1c[nH]c2ccccc12)C(=O)N[C@H](CC(C)C)C(=O)N[C@@H](Cc1c[nH]c2ccccc12)C(=O)N[C@H](CC(C)C)C(=O)N[C@@H](Cc1c[nH]c2ccccc12)C(=O)N[C@H](CC(C)C)C(=O)N[C@@H](Cc1c[nH]c2ccccc12)C(=O)NCCO)C(C)C)C(C)C)C(C)C [gramicidin] | 90 | 118 | 54.6 | 106 | 90.7 | 109 | 94.2 | 87.9 | 95.7 | 42.9 | 101 | 100 | 26.4 | 114 | 121 | 97.5 | 94.3 | 32.4 | 97.4 | 20.3 | 99.2 | 94.3 | 94 | 92.5 | 98.3 | > 10 | 2.55 | > 10 | 0.466 | > 10 | 0 | 3.7 | 0 | 12.3 | 0
OCCOc1ccc(/C(=C(/CCCl)c2ccccc2)c2ccccc2)cc1 [ospemifene] | 103 | 108 | 104 | 91.3 | 78 | 96.7 | 103 | 106 | 96.6 | 101 | 99.5 | 97 | 103 | 107 | 106 | 98.4 | 104 | 98.1 | 101 | 93.1 | 97.9 | 102 | 101 | 99.9 | 94.2 | > 10 | > 10 | > 10 | > 10 | > 10 | 1.7 | 0 | 0 | 0 | 0
NS(=O)(=O)c1cc2c(cc1Cl)NC(CC1CCCC1)NS2(=O)=O (stereo not given) [cyclopenthiazide] | 102 | 106 | 90.4 | 98.6 | 90.4 | 96.8 | 105 | 97.6 | 97.7 | 96.4 | 111 | 103 | 101 | 99.1 | 102 | 100 | 104 | 98.8 | 107 | 96.6 | 102 | 91 | 98.9 | 94.9 | 99.9 | > 10 | > 10 | > 10 | > 10 | > 10 | 0 | 0 | 0 | 0 | 0
CCO[C@@H](Cc1ccc(OCCc2ccc(OS(C)(=O)=O)cc2)cc1)C(=O)O [tesaglitazar] | 101 | 86 | 94.1 | 100 | 99.2 | 105 | 104 | 97.9 | 113 | 110 | 101 | 96.7 | 104 | 91.1 | 98.1 | 100 | 95.9 | 95.7 | 101 | 105 | 99.2 | 99.5 | 96 | 81.9 | 82.6 | > 10 | > 10 | > 10 | > 10 | > 10 | 0 | 0 | 0 | 0 | 2.7
c1ccc2sc(SNC3CCCCC3)nc2c1 [N-cyclohexyl-2-benzothiazolesulfenamide] | 92.5 | 102 | 116 | 101 | 105 | 105 | 99.6 | 101 | 84 | 94.7 | 97.5 | 105 | 84.2 | 97.4 | 100 | 95.1 | 95 | 100 | 96.6 | 100 | 110 | 106 | 100 | 107 | 87.1 | > 10 | > 10 | > 10 | > 10 | > 10 | 0 | 1.6 | 0 | 0 | 0
O=C(NCCNCC(O)COc1ccc(O)cc1)N1CCOCC1 (stereo not given) [xamoterol] | 95.8 | 96.7 | 99.9 | 90.3 | 99.5 | 106 | 104 | 110 | 100 | 93.6 | 99.1 | 99.4 | 96.2 | 102 | 102 | 99.7 | 91.3 | 96.5 | 99.1 | 101 | 93.8 | 98.5 | 98 | 98.5 | 95.7 | > 10 | > 10 | > 10 | > 10 | > 10 | 0 | 0 | 0 | 0 | 0
CC(NC(C)(C)C)C(=O)c1cccc(Cl)c1 (stereo not given) [bupropion] | 90.3 | 90.6 | 86.4 | 105 | 91.6 | 104 | 96.3 | 101 | 106 | 101 | 100 | 103 | 103 | 105 | 95 | 95.1 | 96 | 99 | 94.4 | 93.8 | 107 | 105 | 102 | 92.1 | 81.7 | > 10 | > 10 | > 10 | > 10 | > 10 | 0 | 0 | 0 | 0 | 1.3
C[C@]12CCC(=O)C=C1CC[C@@H]1[C@@H]2CC[C@@]2(C)[C@H]1CC[C@]2(C)O [17-alpha-Methyltestosterone] | 99.2 | 89.5 | 90.4 | 98.8 | 102 | 108 | 97.1 | 114 | 106 | 115 | 103 | 90.8 | 91.5 | 96.8 | 101 | 97.6 | 96.1 | 104 | 101 | 97.1 | 92.6 | 97.4 | 94.4 | 91.9 | 105 | > 10 | > 10 | > 10 | > 10 | > 10 | 0 | 0 | 0 | 0 | 0
